Results taken from ChEMBL document CHEMBL1151672, “Amarogentin, a naturally occurring secoiridoid glycoside and a newly recognized inhibitor of topoisomerase I from Leishmania donovani” (J Nat Prod, 1996).
Calls of active or inactive are those of the source. The calls are words filed in the database; no cut-off is given here.

System: Leishmania donovani
Test: Inhibition of 2 units of Leishmania donovani MHOM/IN/1978/UR6 DNA topoisomerase 1-mediated supercoiled pGEM4Z DNA relaxation at 5 to 10 uM preincubated for 10 mins prior to DNA addition by agarose gel electrophoresis

CC[C@@]1(O)C(=O)OCc2c1cc1n(c2=O)Cc2cc3ccccc3nc2-1
Activity: Active
